# Experimental data taken from patent publication US8912222B2, “Method to control insects resistant to common insecticides” (priority 2006, dated 2014).
# Read-outs that look alike come from different tables or passages of the source. Marks after values point to notes of the source that are not given here.
# What was measured:
# [1] = test system: insecticide-resistant Q-biotype Bemisia tabaci strain CHLORAKA; assay: Leaf-disc dip bioassay on adult whiteflies, neonicotinoid-resistant Q-biotype strain (Example VII); format: in vivo; details: for mortality at 40 ppm / mortality at 100 ppm / mortality at 500 ppm: 72 h; for Resistance Ratio: CHLORAKA (R) vs SUD-S (S) LC50
# Method: (§1) The activity of commercial, neonicotinoid insecticides was also assessed and served as the basis for comparisons of relative efficacy on this insecticide-resistant whitefly strain.
# (§2) The common name associated with the Q-biotype of B. tabaci is the sweetpotato whitefly. […] The SUD-S strain of B. tabaci was the reference strain used in these tests and is a laboratory strain that is fully susceptible to all insecticide groups.
# (§3) Technical samples of Compounds 6 and 7 were initially dissolved in 90% acetone in distilled water (containing 0.01% Agral) to obtain 5000 ppm stock solutions. […] Commercial formulations of imidacloprid (Confidor, 200SL), thiamethoxam (Actara, 25WG) and acetamiprid (Mospilan, 20SP) were diluted using distilled water containing 0.01% Agral.
# (§4) Adult B. tabaci were removed from rearing cages using a motorized aspirator and, after brief narcosis, 20-30 healthy female whiteflies were placed onto each treated leaf disc. Each unit was sealed with a close-fitting, ventilated lid. Once adults had recovered from narcosis, dishes were inverted so that the leaf disc was facing abaxial side down allowing the adult whiteflies to orient normally. All bioassays consisted of three replicates per concentration (including controls). Mortality was assessed at 48 hours after initiation of the test for the commercial standards and at 72 hours for Compounds 6 and 7.
# (§5) Compounds 6, 7 and the commercial neonicotinoid insecticides imidacloprid, thiamethoxam and acetamiprid were tested in discriminating concentration bioassays against both whitefly strains. More extensive concentration-response bioassays against both whitefly strains were conducted for Compounds 6, 7 and imidacloprid. […] Resistance ratios were calculated using the following equation: […]
# [2] = test system: Bemisia tabaci SUD-S strain (susceptible laboratory strain); assay: Leaf-disc dip bioassay on adult whiteflies, susceptible reference strain (Example VII); format: in vivo; details: for mortality at 40 ppm / mortality at 100 ppm / mortality at 500 ppm: 72 h
# Method: as §1, §2, §3, §4, §5
# [3] = test system: insecticide-resistant B-biotype Bemisia tabaci strain GUA-MIX; assay: Leaf-disc dip bioassay on adult whiteflies, neonicotinoid-resistant B-biotype strain (Example VIII); format: in vivo; details: for Resistance Ratio: GUA-MIX (R) vs SUD-S (S) LC50
# Method: as §1, with “The insecticidal activity of Compound 7 on adults from an insecticide-resistant, B-biotype Bemisia tabaci strain was assessed. The” for “The”
# (§6) The common name associated with the B-biotype of B. tabaci is the silverleaf whitefly. The strain used in these tests, “GUA-MIX”, was collected from a variety of crops situated in the Zacapa Valley of Guatemala in January of 2004. […] The SUD-S strain of B. tabaci was the reference strain used in these tests and is a laboratory strain that is fully susceptible to all insecticide groups.
# (§7) A technical sample of Compound 7 was initially dissolved in 90% acetone in distilled water (containing 0.01% Agral) to obtain a 5000 ppm stock solution. […] Commercial formulations of imidacloprid (Confidor, 200SL), thiamethoxam (Actara, 25WG) and acetamiprid (Mospilan, 20SP) were diluted using distilled water containing 0.01% Agral.
# as §4, with “Compound” for “Compounds 6 and”
# as §5, with “Compound” for “Compounds 6,”
# [4] = test system: Bemisia tabaci SUD-S strain (susceptible laboratory strain); assay: Leaf-disc dip bioassay on adult whiteflies, susceptible reference strain (Example VIII); format: in vivo
# Method: as §1, with “The insecticidal activity of Compound 7 on adults from an insecticide-resistant, B-biotype Bemisia tabaci strain was assessed. The” for “The”
# as §6, §7
# as §4, with “Compound” for “Compounds 6 and”
# as §5, with “Compound” for “Compounds 6,”
# [5] = test system: field-collected populations of the whitefly, Bemisia tabaci; details: field-collected B. tabaci strains, late 1990s onward; literature; cited from earlier work
# [6] = test system: Bemisia tabaci SUD-S strain (susceptible laboratory strain); assay: Leaf-disc dip bioassay on adult whiteflies, susceptible reference strain (Example IX); format: in vivo
# Text: as §2
# as §4, with “2, 4,” for “6”, “5.” for “7.”
# (§8) Resistance ratios were calculated using the following equation: […]
# [7] = test system: insecticide-resistant Myzus persicae strain 4013A; assay: Leaf-disc dip bioassay on adult aphids, insecticide-resistant strain (Example IX); details: for Resistance Ratio: 4013A (R) vs US1L (S) LC50
# Text: (§9) Activity was compared to that of commercial insecticides representing major insecticide classes.
# (§10) The common name associated with Myzus persicae is the green peach aphid. […] The “US1L” strain of M. persicae was the reference strain used in these tests.
# (§11) Subsequent dilutions used a 10% solution of acetone in distilled water (containing 0.01% Agral®) as the diluent.
# (§12) For M. persicae bioassays, discs cut from fully expanded leaves of Chinese cabbage (Brassica rapa ssp. Pekinensis cv. Won Bok) plants were dipped into serial dilutions of insecticide, allowed to air-dry, and placed onto agar-water (1%) beds in plastic Petri-dishes. Leaf discs immersed in the diluent only were used for controls. Adults were removed from rearing boxes and, using a fine camel-hair paint brush, 10 healthy, apterous females were placed onto each treated leaf disc and each unit sealed with a close-fitting, ventilated lid. All bioassays consisted of three replicates per dose (including controls). Mortality was scored at 24, 48 and 72 h following initial exposure for all compounds and the 72 h data were used for all analyses.
# (§13) Mortality data were subjected to probit analysis to derive LC50 and LC90 estimates. Resistance ratios were calculated using the following equation: […]
# [8] = test system: Myzus persicae US1L strain (susceptible)
# Text: as §9, §10, §11, §12, §13
# [9] = test system: insecticide-resistant Q-biotype Bemisia tabaci strain CHLORAKA; assay: Leaf-disc dip bioassay on adult whiteflies, insecticide-resistant Q-biotype strain (Example IX); format: in vivo; details: for Resistance Ratio: CHLORAKA (R) vs SUD-S (S) LC50
# Text: as §2
# as §4, with “2, 4,” for “6”, “5.” for “7.”
# as §8
# [10] = Bemisia tabaci, read-out: Mortality, R Strain (CHLORAKA)
# [11] = Bemisia tabaci, read-out: Mortality, S Strain (SUD-S)
# [12] = Bemisia tabaci, 72 h, read-out: Mortality, R Strain (GUA-MIX)
# [13] = Bemisia tabaci, 72 h, read-out: Mortality, S Strain (SUD-S)
# [14] = Bemisia tabaci, 48 h, read-out: Mortality, R Strain (GUA-MIX)
# [15] = Bemisia tabaci, 48 h, read-out: Mortality, R Strain (CHLORAKA)
# [16] = Bemisia tabaci, 48 h, read-out: Mortality, S Strain (SUD-S)
# [17] = probit analysis, mortality at 72 hours for Compounds 2, 4, 5, 48 hours for commercial standards
# [18] = probit analysis, 72 h mortality data
# [19] = probit analysis, mortality at 72 hours for Compound 7, 48 hours for commercial standard
# [20] = probit analysis, mortality at 72 hours for Compounds 6 and 7, 48 hours for commercial standard
smiles,measurement,setting,value
"C[C@H](c1ccc(Cl)nc1)S(C)(=O)=NC#N (single isomer, unassigned) [Compound 6]",mortality at 40 ppm,[1]; [10],39%
same,mortality at 100 ppm,[1]; [10],79%
same,mortality at 500 ppm,[1]; [10],96%
same,Resistance Ratio,[1],6.1
same,"LC50, R strain (CHLORAKA)",[1]; in vivo,45 ppm
same,mortality at 40 ppm,[2]; [11],99%
same,mortality at 100 ppm,[2]; [11],100%
same,mortality at 500 ppm,[2]; [11],100%
same,"LC50, S strain (SUD-S)",[2]; in vivo,7.4 ppm
"C[C@@H](c1ccc(Cl)nc1)S(C)(=O)=NC#N (single isomer, unassigned) [Compound 7]",mortality at 40 ppm,[3]; [12],70%
same,mortality at 100 ppm,[3]; [12],79%
same,Resistance Ratio,[3],3.3
same,"LC50, R strain (GUA-MIX)",[3]; in vivo,30.3 ppm
same,mortality at 40 ppm,[1]; [10],37%
same,mortality at 100 ppm,[1]; [10],79%
same,mortality at 500 ppm,[1]; [10],97%
same,Resistance Ratio,[1],5.9
same,"LC50, R strain (CHLORAKA)",[1]; in vivo,53 ppm
same,mortality at 40 ppm,[4]; [13],84%
same,mortality at 100 ppm,[4]; [13],95%
same,"LC50, S strain (SUD-S)",[4]; in vivo,9.3 ppm
same,mortality at 40 ppm,[2]; [11],98%
same,mortality at 100 ppm,[2]; [11],97%
same,mortality at 500 ppm,[2]; [11],100%
same,"LC50, S strain (SUD-S)",[2]; in vivo,9.0 ppm
"C/C(=N\C#N)N(C)Cc1ccc(Cl)nc1 [Acetamiprid, acetamiprid]",mortality at 32 ppm,[3]; [14],1%
same,mortality at 512 ppm,[3]; [14],63%
same,mortality at 32 ppm,[1]; [15],2%
same,mortality at 512 ppm,[1]; [15],30%
same,mortality at 32 ppm,[4]; [16],65%
same,mortality at 512 ppm,[4]; [16],98%
same,resistance of more recently-collected whitefly strains,[5],comparable levels of resistance
same,mortality at 32 ppm,[2]; [16],52%
same,mortality at 512 ppm,[2]; [16],79%
"CC(c1ccc(C(F)(F)F)nc1)S(C)(=O)=NC#N (stereo not shown) [Compound 2, [1-(6-Trifluoromethylpyridin-3-yl)ethyl](methyl)-oxido-λ^4-sulfanylidenecyanamide]","LC50, S strain (SUD-S)",[6]; [17],1.8 ppm
same,Resistance Ratio,[7],0.4
same,"LC50, R strain (4013A)",[7]; [18],1.52 ppm
same,"LC50, S strain (US1L)",[8]; [18],4.13 ppm
same,Resistance Ratio,[9],2.8
same,"LC50, R strain (CHLORAKA)",[9]; [17],5.0 ppm
"CS(=O)(Cc1ccc(Cl)nc1)=NC#N (stereo not shown) [Compound 4, [(6-Chloropyridin-3-yl)methyl](methyl)oxido-λ^4-sulfanylidenecyanamide]","LC50, S strain (SUD-S)",[6]; in vivo,3.1 ppm
same,Resistance Ratio,[7],0.7
same,"LC50, R strain (4013A)",[7]; [18],103 ppm
same,"LC50, S strain (US1L)",[8]; in vivo,146 ppm
same,Resistance Ratio,[9],5.2
same,"LC50, R strain (CHLORAKA)",[9]; in vivo,16.5 ppm
"CC(c1ccc(Cl)nc1)S(C)(=O)=NC#N (stereo not shown) [Compound 5, [1-(6-Chloropyridin-3-yl)ethyl](methyl)oxido-λ^4-sulfanylidenecyanamide]","LC50, S strain (SUD-S)",[6]; in vivo,4.5 ppm
same,Resistance Ratio,[7],0.2
same,"LC50, R strain (4013A)",[7]; [18],12.5 ppm
same,"LC50, S strain (US1L)",[8]; in vivo,62.3 ppm
same,Resistance Ratio,[9],2.9
same,"LC50, R strain (CHLORAKA)",[9]; in vivo,13.2 ppm
"CC1(C)[C@H](C(=O)O[C@H](C#N)c2cccc(Oc3ccccc3)c2)[C@@H]1C=C(Br)Br [Deltamethrin, deltamethrin]","LC50, S strain (SUD-S)",[6]; [17],0.4 ppm
same,Resistance Ratio,[7],60
same,"LC50, R strain (4013A)",[7]; in vivo,92 ppm
same,"LC50, S strain (US1L)",[8]; [18],1.5 ppm
same,Resistance Ratio,[9],815 ^
same,"LC50, R strain (CHLORAKA)",[9]; [17],325 ppm
"O=[N+]([O-])NC1=NCCN1Cc1ccc(Cl)nc1 [Imidacloprid, imidacloprid]",mortality at 32 ppm,[3]; [14],8%
same,mortality at 128 ppm,[3]; [14],39%
same,mortality at 2048 ppm,[3]; [14],49%
same,Resistance Ratio,[3],>45.5**
same,effect on the majority of adults of the GUA-MIX strain,[3]; imidacloprid concentrations of 1000 ppm,largely unaffected
same,"LC50, R strain (GUA-MIX)",[3]; [19],>500.0 ppm
same,"LC50, S strain (SUD-S)",[6]; [17],1.2 ppm
same,Resistance Ratio,[7],17
same,"LC50, R strain (4013A)",[7]; [18],15.3 ppm
same,"LC50, S strain (US1L)",[8]; [18],0.9 ppm
same,mortality at 32 ppm,[1]; [15],2%
same,mortality at 128 ppm,[1]; [15],2%
same,mortality at 4096 ppm,[1]; [15],25%
same,Resistance Ratio,[1],>930**
same,effect of exposure on adults of the CHLORAKA strain,[1]; imidacloprid at 1000 ppm,largely unaffected
same,"LC50, R strain (CHLORAKA)",[1]; [20],>4000 ppm
same,mortality at 32 ppm,[4]; [16],74%
same,mortality at 128 ppm,[4]; [16],87%
same,"LC50, S strain (SUD-S)",[4]; [19],11.2 ppm
same,resistance of more recently-collected whitefly strains,[5],more than 100 fold
same,mortality at 32 ppm,[2]; [16],83%
same,mortality at 128 ppm,[2]; [16],95%
same,"LC50, S strain (SUD-S)",[2]; [20],4.3 ppm
same,Resistance Ratio,[9],>800**
same,effect of exposure on adults of the CHLORAKA strain,[9]; imidacloprid at 1000 ppm,largely unaffected
same,"LC50, R strain (CHLORAKA)",[9]; [17],>1000 ppm
"Cc1nc(N(C)C)nc(OC(=O)N(C)C)c1C [Pirimicarb, pirimicarb]",Resistance Ratio,[7],>60**^
same,"LC50, R strain (4013A)",[7]; [18],>1000 ppm
same,"LC50, S strain (US1L)",[8]; [18],14.8 ppm
"CCCSP(=O)(OCC)Oc1ccc(Br)cc1Cl (stereo not shown) [Profenofos, profenofos]","LC50, S strain (SUD-S)",[6]; [17],2.0 ppm
same,Resistance Ratio,[9],189 ^
same,"LC50, R strain (CHLORAKA)",[9]; [17],374 ppm
"CN1COCN(Cc2cnc(Cl)s2)/C1=N\[N+](=O)[O-] [Thiamethoxam, thiamethoxam]",mortality at 25 ppm,[3]; [14],10%
same,mortality at 250 ppm,[3]; [14],51%
same,mortality at 2500 ppm,[3]; [14],87%
same,mortality at 32 ppm,[1]; [15],0%
same,mortality at 512 ppm,[1]; [15],15%
same,mortality at 32 ppm,[4]; [16],57%
same,mortality at 128 ppm,[4]; [16],73%
same,resistance of more recently-collected whitefly strains,[5],comparable levels of resistance
same,mortality at 32 ppm,[2]; [16],85%
same,mortality at 512 ppm,[2]; [16],94%
